Results: ChEMBL document CHEMBL5518212, “Structure-Based Design of Novel G-Protein-Coupled Receptor TAAR1 Agonists as Potential Antipsychotic Drug Candidates” (J Med Chem, 2024)
pEC50: −log10 of the molar value. Values after ≈ are worked out from the molar mass of the structure shown.

Assays:
[1] = molecular target: T1, Trace amine-associated receptor 1 (Homo sapiens, UniProt Q96RJ0); assay: Agonist activity at Gs-mediated TAAR1 activation (unknown origin) expressed in HEK293 cells pretreated with coelenterazine for 30 mins followed by compound addition by BRET assay; assay type: functional, cell-based
T1 sequence (Q96RJ0 whole entry): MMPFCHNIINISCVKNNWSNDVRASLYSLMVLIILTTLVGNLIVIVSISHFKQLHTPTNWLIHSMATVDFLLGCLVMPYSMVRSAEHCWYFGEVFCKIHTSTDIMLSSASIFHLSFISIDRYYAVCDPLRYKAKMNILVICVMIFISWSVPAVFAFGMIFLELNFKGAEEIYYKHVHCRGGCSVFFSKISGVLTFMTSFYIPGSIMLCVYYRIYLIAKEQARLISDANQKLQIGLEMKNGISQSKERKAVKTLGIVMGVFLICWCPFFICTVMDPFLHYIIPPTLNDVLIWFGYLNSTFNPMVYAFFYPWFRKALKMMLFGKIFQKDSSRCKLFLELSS

[2] = organism: Mus musculus; details: C57BL/6J, dose 0.3-3 mg/kg, route po, time 70.0 min
[3] = Toxicity in C57BL/6J mouse assessed as induction of catalepsy at 3 to 10 mg/kg, po measured at 30 to 60 mins; assay type: organism-based; details: in vivo, dose lower 3 mg/kg, time lower 30 min, dose upper 10 mg/kg, time upper 60 min
[4] = Solubility of the compound at pH 2; assay type: physicochemical; details: buffer
[5] = Solubility of the compound at pH 7; assay type: physicochemical; details: buffer
[6] = Solubility of the compound at pH 7.4; assay type: physicochemical; details: buffer
[7] = Toxicity in C57BL/6J mouse assessed as reduction in baseline locomotion at 3 mg/kg, po; assay type: organism-based; details: in vivo
[8] = molecular target: T1, Trace amine-associated receptor 1; assay: Agonist activity at Gq-mediated TAAR1 activation (unknown origin) expressed in HEK293 cells pretreated with coelenterazine for 30 mins followed by compound addition by BRET assay; assay type: functional, cell-based
[9] = Toxicity in Kunming mouse assessed as lung damage at 50 mg/kg, po administered every 2 days for 14 days by H and E staining based assay; assay type: organism-based; details: in vivo, 336 h, time 14 day
[10] = AUC(0 to infinity) in Sprague-Dawley rat at 2 mg/kg, iv measured upto 8 hrs by LC-MS/MS analysis; assay type: ADME, organism-based; details: in vivo
[11] = Clearance in Sprague-Dawley rat at 2 mg/kg, iv measured upto 8 hrs by LC-MS/MS analysis; assay type: ADME, organism-based; details: in vivo
[12] = AUC(0 to infinity) in Sprague-Dawley rat at 10 mg/kg, po measured upto 8 hrs by LC-MS/MS analysis; assay type: ADME, organism-based; details: in vivo
[13] = Toxicity in Kunming mouse assessed as spleen damage at 50 mg/kg, po administered every 2 days for 14 days by H and E staining based assay; assay type: organism-based; details: in vivo, 336 h, time 14 day
[14] = Cmax in Sprague-Dawley rat at 10 mg/kg, po measured upto 8 hrs by LC-MS/MS analysis; assay type: ADME, organism-based; details: in vivo
[15] = Tmax in Sprague-Dawley rat at 2 mg/kg, iv measured upto 8 hrs by LC-MS/MS analysis; assay type: ADME, organism-based; details: in vivo
[16] = Half-life in Sprague-Dawley rat at 2 mg/kg, iv measured upto 8 hrs by LC-MS/MS analysis; assay type: ADME, organism-based; details: in vivo
[17] = Acute toxicity in Kunming mouse assessed as abnormal behavior at 50 mg/kg, po administered every 2 days for 14 days; assay type: organism-based; details: in vivo, 336 h, time 14 day
[18] = Toxicity in Kunming mouse assessed as kidney damage at 50 mg/kg, po administered every 2 days for 14 days by H and E staining based assay; assay type: organism-based; details: in vivo, 336 h, time 14 day
[19] = AUC(0 to t) in Sprague-Dawley rat at 2 mg/kg, iv measured upto 8 hrs by LC-MS/MS analysis; assay type: ADME, organism-based; details: in vivo
[20] = Acute toxicity in Kunming mouse assessed as change in body weight at 500 mg/kg, po measured after 7 days; assay type: organism-based; details: in vivo, 168 h, time 7 day
[21] = Tmax in Sprague-Dawley rat at 10 mg/kg, po measured upto 8 hrs by LC-MS/MS analysis; assay type: ADME, organism-based; details: in vivo
[22] = Cmax in Sprague-Dawley rat at 2 mg/kg, iv measured upto 8 hrs by LC-MS/MS analysis; assay type: ADME, organism-based; details: in vivo
[23] = Half-life in Sprague-Dawley rat at 10 mg/kg, po measured upto 8 hrs by LC-MS/MS analysis; assay type: ADME, organism-based; details: in vivo
[24] = Oral bioavailability in Sprague-Dawley rat at 10 mg/kg measured upto 8 hrs by LC-MS/MS analysis; assay type: ADME, organism-based; details: in vivo
[25] = Toxicity in Kunming mouse assessed as liver damage at 50 mg/kg, po administered every 2 days for 14 days by H and E staining based assay; assay type: organism-based; details: in vivo, 336 h, time 14 day
[26] = Toxicity in Kunming mouse assessed as heart damage at 50 mg/kg, po administered every 2 days for 14 days by H and E staining based assay; assay type: organism-based; details: in vivo, 336 h, time 14 day
[27] = Acute toxicity in Kunming mouse assessed as change in body weight at 50 mg/kg, po administered every 2 days for 14 days; assay type: organism-based; details: in vivo, 336 h, time 14 day
[28] = AUC(0 to t) in Sprague-Dawley rat at 10 mg/kg, po measured upto 8 hrs by LC-MS/MS analysis; assay type: ADME, organism-based; details: in vivo

Compound: NCc1ccc(-c2ccccc2)cc1
- pEC50 [1]: 6.52

Compound: CN(C)Cc1ccc(-c2ccccc2)cc1
- pEC50 [1]: 8.02
- inhibition [2]: Dose-Dependent Effect
- Activity [3]: Non-Toxic

Compound: CN(C)Cc1ccc(-c2cccc(Cl)c2)cc1
- Activity [3]: Non-Toxic

Compound: C[C@@H](N)C(=O)Nc1ccc(-c2ccco2)cc1
- solubility [4]: 390 µg/mL (≈ 1690 µM)
- solubility [5]: 710 µg/mL (≈ 3080 µM)
- solubility [6]: 540 µg/mL (≈ 2350 µM)
- Activity [3]: Non-Toxic
- Activity [7]: Non-Toxic

Compound: NCCc1ccc(-c2cccc(F)c2)cc1
- pEC50 [1]: 8.93

Compound: Nc1ccc(-c2ccccc2)cc1 [BIPHENYL-4-AMINE]
- pEC50 [8]: 6.47

Compound: C[C@@H](N)C(=O)Nc1ccc(-c2ccco2)cc1.Cl
- Activity [9]: Non-Toxic
- solubility [4]: 8640 µg/mL
- AUC(0-inf) [10]: 327 ng·h/mL
- clearance [11]: 104 mL/min/kg
- AUC(0-inf) [12]: 634 ng·h/mL
- solubility [5]: 7500 µg/mL
- Activity [13]: Non-Toxic
- Cmax [14]: 154 ng/mL
- Tmax [15]: 1.8 min
- solubility [6]: 3110 µg/mL
- half-life [16]: 1.23 h
- Activity [17]: Non-Toxic
- Activity [18]: Non-Toxic
- AUC(0-t) at 8 h [19]: 323 ng·h/mL
- Activity [20]: Non-Toxic
- Tmax [21]: 1.5 h
- Cmax [22]: 292 ng/mL
- half-life [23]: 2.31 h
- bioavailability [24]: 39%
- Activity [25]: Non-Toxic
- Activity [26]: Non-Toxic
- Activity [27]: Non-Toxic
- AUC(0-t) at 8 h [28]: 627 ng·h/mL

Compound: Nc1ccc(-c2cccc(F)c2)cc1
- pEC50 [8]: 7.54

Compound: NCCc1ccc(Br)cc1
- pEC50 [1]: 8.01
- pEC50 [8]: 7.18
